Results from patent EP4603105A1, “PHARMACEUTICAL COMPOSITION CONTAINING CYCLIC COMPOUND HAVING SELECTIVE KRAS INHIBITORY EFFECT AGAINST HRAS AND NRAS” (CHUGAI SEIYAKU KABUSHIKI KAISHA, priority 2022, dated 2024).
Where a SMILES comes first, the peptide text is derived from it. Bridges are numbered along the chain shown (N, C = ends). [ ]: non-standard residue; d: D form. The star is where a group is joined. hPhe(3-Cl-4-CF3) = N[C@@H](CCc1ccc(C(F)(F)F)c(Cl)c1)C(=O)O; NPrPhe(4-CF3) = CCCN[C@@H](Cc1ccc(C(F)(F)F)cc1)C(=O)O; NEtPhe(4-CF3) = CCN[C@@H](Cc1ccc(C(F)(F)F)cc1)C(=O)O; hPhe(3,4-Cl2) = N[C@@H](CCc1ccc(Cl)c(Cl)c1)C(=O)O; NMeGly(cPent) = CN[C@H](C(=O)O)C1CCCC1; Hyp = O=C(O)[C@@H]1C[C@@H](O)CN1; NMeD = CN[C@@H](CC(=O)O)C(=O)O; NMeL = CN[C@@H](CC(C)C)C(=O)O; Ac6c = NC1(C(=O)O)CCCCC1; Morpholide = C1CN(*)CCO1; NMeA = CN[C@@H](C)C(=O)O; Ac5c = NC1(C(=O)O)CCCC1; Aze = O=C(O)[C@@H]1CCN1; Ac3c = NC1(C(=O)O)CC1; Aib = CC(C)(N)C(=O)O; Sar = CNCC(=O)O

How the values were obtained:
[1] = test system: human lung cancer strain NCI-H441; type: cell-based
In short: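 Signal came from […] measured per well once the reagent was added. Beforehand, cells were cultured at 37°C and 5% carbon dioxide on a compound series serially diluted in dimethyl sulfoxide.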

[2] = target: GDP-bound NRAS wild-type protein (Homo sapiens, UniProt P01111); assay: Binding to NRAS by surface plasmon resonance (SPR), KD and KD ratio to KRAS; settings: ratio of KD for GDP-bound NRAS wild-type protein to KD for KRAS
In short: (§1)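 Each cycle, GDP-bound biotin-Avi RAS was captured (~100–300 RU), compound concentrations were injected low to high for 75 s each at 100 µL/min, then the chip was regenerated. Buffer: HBS pH 7.4, 10 mM MgCl2, 10 µM GDP, 1 mM DTT, 4% DMSO; 30°C. KD from a 1:1 binding model.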

HRAS wild-type protein = HRAS wild-type protein (Homo sapiens, UniProt P01112); assay: Binding to HRAS by surface plasmon resonance (SPR), KD and KD ratio to KRAS; settings: ratio of KD for HRAS wild-type protein to KD for KRAS
In short: as §1

Sequence of GDP-bound NRAS wild-type protein (P01111 whole entry): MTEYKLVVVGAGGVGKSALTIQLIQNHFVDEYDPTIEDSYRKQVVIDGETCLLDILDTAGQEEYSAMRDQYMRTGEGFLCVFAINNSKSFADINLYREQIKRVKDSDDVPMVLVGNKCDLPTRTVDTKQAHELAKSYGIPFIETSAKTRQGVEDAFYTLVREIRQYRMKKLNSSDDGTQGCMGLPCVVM
Sequence of HRAS wild-type protein (P01112 whole entry): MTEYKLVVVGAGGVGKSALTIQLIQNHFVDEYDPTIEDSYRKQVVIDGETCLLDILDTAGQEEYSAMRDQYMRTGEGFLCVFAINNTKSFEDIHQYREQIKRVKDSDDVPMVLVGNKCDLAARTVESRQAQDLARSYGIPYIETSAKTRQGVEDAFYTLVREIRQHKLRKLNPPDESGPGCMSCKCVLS

| SMILES | IC50 [1] [nM] | NRAS /KRAS [2] | HRAS /KRAS (HRAS wild-type protein) |
| --- | --- | --- | --- |
| CCCN1C(=O)[C@@H]2CCN2C(=O)[C@H](C)N(C)C(=O)[C@H]([C@@H](C)CC)NC(=O)[C@H](CC(C)C)N(C)C(=O)C[C@@H](C(=O)N2CCOCC2)N(C)C(=O)[C@H](C2CCCC2)N(C)C(=O)C2(CCCCC2)NC(=O)[C@@H]2CCCN2C(=O)[C@H](CCc2ccc(C(F)(F)F)c(Cl)c2)NC(=O)CN(C)C(=O)[C@@H]1Cc1ccc(C(F)(F)F)cc1 [PP0226] ([NMeL]I[NMeA][Aze][NPrPhe(4-CF3)][Sar][hPhe(3-Cl-4-CF3)]P[Ac6c][NMeGly(cPent)][NMeD]-Morpholide; lactam N-11) | 15.3 | C (A compound having a KD ratio of 0.1 or more and less than 3 is denoted as C) | B (a compound having 3 or more and less than 10 is denoted as B) |
| CCCN1C(=O)[C@@H]2CCN2C(=O)[C@H](C)N(C)C(=O)[C@H]([C@@H](C)CC)NC(=O)[C@H](CC(C)C)N(C)C(=O)C[C@@H](C(=O)N2CCOCC2)N(C)C(=O)[C@H](C2CCCC2)N(C)C(=O)C2(CCCC2)NC(=O)[C@@H]2CCCN2C(=O)[C@H](CCc2ccc(Cl)c(Cl)c2)NC(=O)CN(C)C(=O)[C@@H]1Cc1ccc(C(F)(F)F)cc1 [PP0227] ([NMeL]I[NMeA][Aze][NPrPhe(4-CF3)][Sar][hPhe(3,4-Cl2)]P[Ac5c][NMeGly(cPent)][NMeD]-Morpholide; lactam N-11) | 4.1 | C (A compound having a KD ratio of 0.1 or more and less than 3 is denoted as C) | B (a compound having 3 or more and less than 10 is denoted as B) |
| CCCN1C(=O)[C@@H]2CCN2C(=O)[C@H](C)N(C)C(=O)[C@H]([C@@H](C)CC)NC(=O)[C@H](CC(C)C)N(C)C(=O)C[C@@H](C(=O)N2CCOCC2)N(C)C(=O)[C@H](C2CCCC2)N(C)C(=O)C2(CCCC2)NC(=O)[C@@H]2C[C@@H](OCC)CN2C(=O)[C@H](CCc2ccc(C(F)(F)F)c(Cl)c2)NC(=O)CN(C)C(=O)[C@@H]1Cc1ccc(C(F)(F)F)cc1 [PP0228] ([NMeL]I[NMeA][Aze][NPrPhe(4-CF3)][Sar][hPhe(3-Cl-4-CF3)][Hyp](Et)[Ac5c][NMeGly(cPent)][NMeD]-Morpholide; lactam N-11) | 1.8 | C (A compound having a KD ratio of 0.1 or more and less than 3 is denoted as C) | B (a compound having 3 or more and less than 10 is denoted as B) |
| CCCN1C(=O)CN(C)C(=O)CN(C)C(=O)[C@H]([C@@H](C)CC)NC(=O)[C@H](CC(C)C)N(C)C(=O)C[C@@H](C(=O)N2CCOCC2)N(C)C(=O)[C@H](C2CCCC2)N(C)C(=O)C2(CC2)NC(=O)[C@@H]2CCCN2C(=O)[C@H](CCc2ccc(C(F)(F)F)c(Cl)c2)NC(=O)CN(C)C(=O)[C@@H]1Cc1ccc(C(F)(F)F)cc1 [PP0229] ([NMeL]I[Sar][Sar][NPrPhe(4-CF3)][Sar][hPhe(3-Cl-4-CF3)]P[Ac3c][NMeGly(cPent)][NMeD]-Morpholide; lactam N-11) | 24.7 | B (a compound having 3 or more and less than 10 is denoted as B) | B (a compound having 3 or more and less than 10 is denoted as B) |
| CCCN1C(=O)CN(C)C(=O)CN(C)C(=O)[C@H]([C@@H](C)CC)NC(=O)[C@H](CC(C)C)N(C)C(=O)C[C@@H](C(=O)N2CCOCC2)N(C)C(=O)[C@H](C2CCCC2)N(C)C(=O)C(C)(C)NC(=O)[C@@H]2CCCN2C(=O)[C@H](CCc2ccc(C(F)(F)F)c(Cl)c2)NC(=O)CN(C)C(=O)[C@@H]1Cc1ccc(C(F)(F)F)cc1 [PP0230] ([NMeL]I[Sar][Sar][NPrPhe(4-CF3)][Sar][hPhe(3-Cl-4-CF3)]P[Aib][NMeGly(cPent)][NMeD]-Morpholide; lactam N-11) | 15.5 | B (a compound having 3 or more and less than 10 is denoted as B) | C (A compound having a KD ratio of 0.1 or more and less than 3 is denoted as C) |
| CCCN1C(=O)CN(C)C(=O)CN(C)C(=O)[C@H]([C@@H](C)CC)NC(=O)[C@H](CC(C)C)N(C)C(=O)C[C@@H](C(=O)N2CCOCC2)N(C)C(=O)[C@H](C2CCCC2)N(C)C(=O)C2(CCCCC2)NC(=O)[C@@H]2CCCN2C(=O)[C@H](CCc2ccc(C(F)(F)F)c(Cl)c2)NC(=O)CN(C)C(=O)[C@@H]1Cc1ccc(C(F)(F)F)cc1 [PP0231] ([NMeL]I[Sar][Sar][NPrPhe(4-CF3)][Sar][hPhe(3-Cl-4-CF3)]P[Ac6c][NMeGly(cPent)][NMeD]-Morpholide; lactam N-11) | 13.1 | B (a compound having 3 or more and less than 10 is denoted as B) | C (A compound having a KD ratio of 0.1 or more and less than 3 is denoted as C) |
| CCCN1C(=O)CN(C)C(=O)CN(C)C(=O)[C@H]([C@@H](C)CC)NC(=O)[C@H](CC(C)C)N(C)C(=O)C[C@@H](C(=O)N2CCOCC2)N(C)C(=O)[C@H](C2CCCC2)N(C)C(=O)C2(CCCC2)NC(=O)[C@@H]2CCCN2C(=O)[C@H](CCc2ccc(Cl)c(Cl)c2)NC(=O)CN(C)C(=O)[C@@H]1Cc1ccc(C(F)(F)F)cc1 [PP0232] ([NMeL]I[Sar][Sar][NPrPhe(4-CF3)][Sar][hPhe(3,4-Cl2)]P[Ac5c][NMeGly(cPent)][NMeD]-Morpholide; lactam N-11) | 4.7 | B (a compound having 3 or more and less than 10 is denoted as B) | B (a compound having 3 or more and less than 10 is denoted as B) |
| CCCN1C(=O)CN(C)C(=O)CN(C)C(=O)[C@H]([C@@H](C)CC)NC(=O)[C@H](CC(C)C)N(C)C(=O)C[C@@H](C(=O)N2CCOCC2)N(C)C(=O)[C@H](C2CCCC2)N(C)C(=O)C2(CCCC2)NC(=O)[C@@H]2C[C@@H](OCC)CN2C(=O)[C@H](CCc2ccc(C(F)(F)F)c(Cl)c2)NC(=O)CN(C)C(=O)[C@@H]1Cc1ccc(C(F)(F)F)cc1 [PP0233] ([NMeL]I[Sar][Sar][NPrPhe(4-CF3)][Sar][hPhe(3-Cl-4-CF3)][Hyp](Et)[Ac5c][NMeGly(cPent)][NMeD]-Morpholide; lactam N-11) | 1.6 | B (a compound having 3 or more and less than 10 is denoted as B) | C (A compound having a KD ratio of 0.1 or more and less than 3 is denoted as C) |
| CC[C@H](C)[C@@H]1NC(=O)[C@H](CC(C)C)N(C)C(=O)C[C@@H](C(=O)N2CCOCC2)N(C)C(=O)[C@H](C2CCCC2)N(C)C(=O)C2(CCCCC2)NC(=O)[C@@H]2CCCN2C(=O)[C@H](CCc2ccc(C(F)(F)F)c(Cl)c2)NC(=O)CN(C)C(=O)[C@H](Cc2ccc(C(F)(F)F)cc2)N(CC)C(=O)CN(C)C(=O)CN(C)C1=O [PP0236] ([NMeL]I[Sar][Sar][NEtPhe(4-CF3)][Sar][hPhe(3-Cl-4-CF3)]P[Ac6c][NMeGly(cPent)][NMeD]-Morpholide; lactam N-11) | 20.3 | B (a compound having 3 or more and less than 10 is denoted as B) | C (A compound having a KD ratio of 0.1 or more and less than 3 is denoted as C) |
| CC[C@H](C)[C@@H]1NC(=O)[C@H](CC(C)C)N(C)C(=O)C[C@@H](C(=O)N2CCOCC2)N(C)C(=O)[C@H](C2CCCC2)N(C)C(=O)C2(CCCC2)NC(=O)[C@@H]2CCCN2C(=O)[C@H](CCc2ccc(Cl)c(Cl)c2)NC(=O)CN(C)C(=O)[C@H](Cc2ccc(C(F)(F)F)cc2)N(CC)C(=O)CN(C)C(=O)CN(C)C1=O [PP0237] ([NMeL]I[Sar][Sar][NEtPhe(4-CF3)][Sar][hPhe(3,4-Cl2)]P[Ac5c][NMeGly(cPent)][NMeD]-Morpholide; lactam N-11) | 4 | B (a compound having 3 or more and less than 10 is denoted as B) | C (A compound having a KD ratio of 0.1 or more and less than 3 is denoted as C) |
